Assay results taken from ChEMBL document CHEMBL1201862, “PubChem BioAssay data set” (2004).
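These data come from cells grown in 96-well plates and exposed to compound for 48 hours at five concentrations. GI50 = concentration required for 50% inhibition of growth.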 The source made the active and inactive calls. No stated cut-off is given here; in the data, active = GI50 up to about 1.1 µM and inactive = higher.

Experiments:
Assay in all cases: inhibition of tumour cell growth, NCI panel, 48 h
MDA-MB-231 = system: MDA-MB-231
SF-268 = system: SF-268
SK-MEL-2 = system: SK-MEL-2
HL-60 = system: HL-60
KM12 = system: KM12
SF-539 = system: SF-539
EKVX = system: EKVX
NCI/ADR-RES = system: NCI/ADR-RES
OVCAR-8 = system: OVCAR-8
SF-295 = system: SF-295
A549 = system: A549
HT-29 = system: HT-29
MDA-N = system: MDA-N
K562 = system: K562
786-0 = system: 786-0
T47D = system: T47D
MDA-MB-435 = system: MDA-MB-435
COLO 205 = system: COLO 205
SR = system: SR
NCI-H522 = system: NCI-H522

Measured: GI50

COC(=O)[C@H](C)NC(=O)C1(CNC(=O)[C@H](C)NC(=O)OC(C)(C)C)Cc2ccccc2-c2ccccc2C1
inactive: MDA-MB-231 17.9 µM | SF-268 19.6 µM | SK-MEL-2 40 µM | HL-60 19.5 µM | KM12 16.1 µM | SF-539 27 µM | EKVX 19.3 µM | NCI/ADR-RES 17.5 µM | OVCAR-8 6.78 µM | SF-295 21.4 µM | A549 19.4 µM | HT-29 17.4 µM | MDA-N 26.1 µM | K562 24.7 µM | 786-0 19.6 µM | T47D 21.8 µM | MDA-MB-435 20 µM | COLO 205 22.3 µM | SR 20 µM | NCI-H522 7.52 µM

CC(=O)NC1=CC(=O)C=C(Cl)C1=O
inactive: MDA-MB-231 > 100 µM | SF-268 > 100 µM | SK-MEL-2 59.8 µM | HL-60 20.9 µM | KM12 > 100 µM | SF-539 > 100 µM | EKVX > 100 µM | NCI/ADR-RES > 100 µM | OVCAR-8 > 100 µM | SF-295 > 100 µM | A549 > 100 µM | HT-29 > 100 µM | MDA-N 16.8 µM | K562 33.7 µM | 786-0 > 100 µM | T47D > 100 µM | MDA-MB-435 17.9 µM | COLO 205 39.3 µM | SR 22.4 µM | NCI-H522 28.9 µM

Cc1ccc(N(C)S(=O)(=O)c2ccccc2)cc1
inactive: MDA-MB-231 88.3 µM | SF-268 > 100 µM | SK-MEL-2 > 100 µM | HL-60 > 10 µM | KM12 > 100 µM | SF-539 > 100 µM | EKVX 97.9 µM | NCI/ADR-RES > 100 µM | OVCAR-8 > 100 µM | SF-295 > 100 µM | A549 > 100 µM | HT-29 > 100 µM | MDA-N > 100 µM | K562 34.8 µM | 786-0 > 100 µM | T47D 47.9 µM | MDA-MB-435 74 µM | COLO 205 > 100 µM | SR 84.7 µM | NCI-H522 > 100 µM

O=c1cc(CNC2CCCC2)[nH]c(=O)[nH]1
inactive: MDA-MB-231 > 100 µM | SF-268 > 100 µM | SK-MEL-2 > 100 µM | HL-60 > 100 µM | KM12 > 100 µM | SF-539 > 100 µM | EKVX > 100 µM | NCI/ADR-RES > 100 µM | OVCAR-8 > 100 µM | SF-295 > 100 µM | A549 > 100 µM | HT-29 > 100 µM | MDA-N > 100 µM | K562 > 100 µM | 786-0 > 100 µM | T47D > 100 µM | MDA-MB-435 > 100 µM | COLO 205 > 100 µM | SR > 100 µM | NCI-H522 > 100 µM

CCOC(=O)c1nc2cc(N3CCOCC3)c(F)cc2[nH]c1=O
inactive: MDA-MB-231 > 100 µM | SF-268 > 100 µM | SK-MEL-2 > 100 µM | HL-60 19.8 µM | KM12 > 100 µM | SF-539 > 100 µM | EKVX 4.67 µM | NCI/ADR-RES > 100 µM | OVCAR-8 86.9 µM | SF-295 83.4 µM | A549 > 100 µM | HT-29 69.8 µM | MDA-N > 100 µM | K562 > 100 µM | 786-0 > 100 µM | T47D > 100 µM | MDA-MB-435 > 100 µM | COLO 205 > 100 µM | SR 54.2 µM | NCI-H522 67.9 µM

CCSc1nc(C)nc2c1sc1nc3ccccc3n12
inactive: MDA-MB-231 > 100 µM | SF-268 > 100 µM | SK-MEL-2 > 100 µM | HL-60 > 28.1 µM | KM12 > 68.1 µM | SF-539 > 100 µM | EKVX > 100 µM | NCI/ADR-RES > 100 µM | OVCAR-8 > 100 µM | SF-295 > 100 µM | A549 > 100 µM | HT-29 > 100 µM | MDA-N > 100 µM | K562 > 100 µM | 786-0 > 100 µM | T47D > 100 µM | MDA-MB-435 > 100 µM | COLO 205 > 100 µM | SR > 100 µM | NCI-H522 > 100 µM

O=S(=O)(Nc1nc2ccccc2nc1Nc1ccc2ccccc2c1)c1ccccc1
inactive: MDA-MB-231 26.4 µM | SF-268 17.9 µM | SK-MEL-2 3.19 µM | HL-60 5.77 µM | KM12 6 µM | SF-539 15.3 µM | EKVX 11.7 µM | NCI/ADR-RES 5.73 µM | OVCAR-8 14.4 µM | SF-295 5.07 µM | A549 5.96 µM | HT-29 11 µM | MDA-N 19.5 µM | K562 22.5 µM | 786-0 20.3 µM | T47D 5.68 µM | MDA-MB-435 10.8 µM | COLO 205 12.4 µM | SR 13.2 µM | NCI-H522 5.15 µM

CC1(C)S[C@@H]2[C@H](NC(=O)C3(N)CCCCC3)C(=O)N2[C@H]1C(=O)O [CYCLACILLIN]
inactive: MDA-MB-231 > 100 µM | SF-268 > 100 µM | SK-MEL-2 > 100 µM | HL-60 > 100 µM | KM12 > 100 µM | SF-539 > 100 µM | EKVX > 100 µM | NCI/ADR-RES > 100 µM | OVCAR-8 > 100 µM | SF-295 > 100 µM | A549 > 100 µM | HT-29 > 100 µM | MDA-N > 100 µM | K562 > 100 µM | 786-0 > 100 µM | T47D > 100 µM | MDA-MB-435 > 100 µM | COLO 205 > 100 µM | SR > 100 µM | NCI-H522 > 100 µM
